# Experimental data reported in patent publication US7144867B2, “Anticancer glycoside compounds” (priority 2004, dated 2006).
# Marks after values point to notes of the source that are not given here.
# Key:
# caspase 9 = assay: Western blotting, caspase 9 in AsPC-1 cells; format: cell-based, human; details: 4 μg/mL, time-dependent (FIG. 3)
# Method: (§1) Western blotting. Cells were seeded into flasks and cultured to 50% to 60% confluence for 24 hours. Cells were then placed in serum-free medium with or without 4 μg/mL frondoside A for periods of 0, 24, 48 and 72 hours respectively. Proteins were extracted from attached and floating cells in lysis buffer containing 4% SDS. Protein concentrations were determined using the bicinchoninic acid assay with BSA as standard. Western blotting was carried out. In brief, equal amounts of protein in the cell lysates were separated on 15% SDS-PAGE and the proteins were transferred onto nitrocellulose membranes. After blocking non-specific sites with dried milk, membranes were incubated with the appropriate dilution of primary antibody. Membranes were then incubated with a horseradish peroxidase conjugated secondary antibody. Proteins were detected using an enhanced chemiluminescence detection system.
# p21 = assay: Western blotting, p21 in AsPC-1 cells; format: cell-based, human; details: 4 μg/mL, time-dependent (FIG. 5)
# Method: as §1
# AsPC-1 cells [1] = assay: 3H-methyl thymidine incorporation (cell proliferation assay); format: cell-based, human
# Method: (§2) Cell culture. The poorly differentiated human pancreatic cancer line AsPC-1 was purchased from the American Type Culture Collection (ATCC, Manassas, Va., USA). Cells were cultured in MEM medium supplemented with penicillin G (100 U/mL), streptomycin (100 U/mL) and 10% FBS at 37° C. in humidified air with 5% CO2. Cells were harvested by incubation in trypsin-EDTA solution for 10–15 minutes. Cells were then centrifuged at 300×g for 5 minutes and cell pellets were suspended in fresh culture medium prior to seeding into culture flasks or plates.
# (§3) Cell proliferation assay. Cell growth was analyzed by ^3H-methyl thymidine incorporation and cell counting. Following treatment of pancreatic cancer cells with a series of concentrations of frondoside A from 1 μg/mL to 16 μg/mL, cellular DNA synthesis was assayed by adding ^3H-methyl thymidine at 0.5 μLCi/well. After 2 hours incubation, the cells were washed twice with PBS, precipitated with 10% TCA for two hours, and solubilized from each well with 0.5 ml of 0.4 N NaOH. Incorporation of ^3H-methyl thymidine into DNA was measured by adding scintillation liquid and counting in a scintillation counter (LKB BackBeta, Wallac, Turku, Finland). For cell counting, cells were seeded in 12 wells plates and cultured with serum-free medium for 24 hours prior to frondoside A treatment and then switched to serum-free medium with or without 4 μg/mL frondoside A for the respective treatment time points (24, 48 and 72 hours). The cells were removed from the plate by trypsinization to produce a single cell suspension for cell counting. The cells were counted using Z1-Coulter Counter (Luton, UK).
# AsPC-1 cells [2] = assay: Morphological studies (apoptosis); format: cell-based, human; details: 4 μg/mL, within 24 hours
# Method: Morphological studies. The photomicrographs of cell morphological changes were taken with a Kodak DC 120 digital zoom camera under an inverted microscope (400×) following treatment with or without 4 μg/mL frondoside A for different time periods from 24 to 72 hours.
# cancer cells = assay: Anti-cancer / apoptotic promoting activity, method not described; details: no test described for Frondoside B
# caspase 7 = assay: Western blotting, caspase 7 in AsPC-1 cells; format: cell-based, human; details: 4 μg/mL, time-dependent (FIG. 3)
# Method: as §1
# [3] = system: AsPC-1 human pancreatic cancer xenografts; assay: AsPC-1 xenografts in athymic mice; format: in vivo; details: 10 μg/kg/day intraperitoneal, 4 weeks
# Method: Animal Study. Athymic mice (BALB/c nu/nu, 5-week old females) were purchased from Charles River Laboratories (Wilmington, Mass.). Mice were acclimatized to the animal facility for one week prior to receiving xenografts. Xenografts of three million AsPC-1 cells were injected into the flanks of mice. Once visible tumors were evidenced 4–5 days after injection, the animals were divided equally into two groups (6 animals/group) and treated with frondoside A (10 μg/kg/day) or control vehicle (100 μL phosphate-buffered saline, PBS) by intraperitoneal injection. Animal weight and tumor size were recorded every three days. The formula used for tumor volume was (length)H(width)H(length+width/2)H0.526=volume (Naito et al., Int. J. Cancer 58:730 [1994]). After 4-weeks of treatment the animals were euthanized and the tumors were carefully dissected and tumor weights measured.
# [4] = system: HUVEC (human umbilical vein endothelial cells); assay: Angiogenesis, tube formation on Matrigel; format: cell-based; details: for %, Inhibition of the total tube length (Mean ± SEM, n = 2): HUVEC, 18 hours
# Method: Test Substance and Concentration.
# Cell Line and Culture Media.
# Evaluation of anti-proliferation for test substances. Matrigel matrix was thawed, kept on ice at 4° C. and 50 μL transferred to each well of a 96-microwell tissue culture plate. The plate was incubated at 37° C. for at least one hour to allow the matrix solution to solidify before treatment.
# Aliquots of 200 μl of (HUVEC) suspension (about 1.5×10^4 cells/well) were placed in 96-well microtiter plate. Two microliters of compound test solution or vehicle (40% DMSO) was then added per well in duplicate and incubated at 5% CO2 at 37° C. for 18 hours. The final concentration of DMSO was 0.4%. […] Failure to form continuous networks between cell bodies in the presence of test substance was photographed and scored as to the extent of tube disruption at a magnification of 40×. […] The minimum inhibitory concentration (MIC) was calculated to assess the effect of the test substance on angiogenesis.
# Mcl-1 = assay: Western blotting, Mcl-1 in AsPC-1 cells; format: cell-based, human; details: 4 μg/mL, time-dependent (FIG. 4)
# Method: as §1
# AsPC-1 cells [5] = assay: Cell proliferation by cell counting; format: cell-based, human; details: 4 μg/mL
# Method: as §2
# as §3, with “For cell counting, cells were seeded in 12 wells plates and cultured with serum-free medium for 24 hours prior to frondoside A treatment and then switched to serum-free medium with or without 4 μg/mL frondoside A for the respective treatment time points (24, 48 and 72 hours). The cells were removed from the plate by trypsinization to produce a single cell suspension for cell counting.” left out
structure (smiles),measurement,setting,value
"COC1C(O)C(CO)OC(OC2C(O)COC(OC3C(C)OC(OC4C(OC5CCC6(C)C7CCC89C(=O)OC(C)(CCCC(C)C)C8C(OC(C)=O)CC9(C)C7=CCC6C5(C)C)OCC(OS(=O)(=O)[O-])C4O)C(OC4OCC(O)C(O)C4O)C3O)C2O)C1O.[Na+] [Frondoside A, 3-O-methyl-β-D-glucopyranosyl-(1→3)-β-D-xylopyranosyl-(1→4)-[β-D-xylopyranosyl-(1→2)]-β-D-quinovopyranosyl-(1→2)-4-O-sodium sulfate-β-D-xylopyranosyl-3-O-holost-7(8)-en-3β-ol-16β-O-acetate]",activation of caspase 9,caspase 9,reduction in the amounts of the respective procaspase forms
same,expression of P21,p21,markedly increased
same,reduction of incorporation of 3H-methyl thymidine into DNA,"AsPC-1 cells [1]; 4 μg/mL, within 24 hours",approximately 50%
same,inhibition of thymidine incorporation,"AsPC-1 cells [1]; AsPC-1 cells, 1 μg/mL to 16 μg/mL, concentration-dependent (FIG. 1)",marked inhibition of thymidine incorporation
same,concentrations causing cytotoxicity (cell necrosis),AsPC-1 cells [1]; immediate necrosis of cells,higher than 16 μg/mL
same,morphological changes,AsPC-1 cells [2],marked morphological changes characteristic of apoptosis
same,apoptotic promoting activity in cancer cells,cancer cells,apoptotic promoting activity
same,activation of caspase 7,caspase 7,reduction in the amounts of the respective procaspase forms
same,body weights of control and treated animals,[3]; athymic mice,no significant difference
same,toxicity through the treatment period,[3]; athymic mice,No toxicity was seen
same,growth of subcutaneously transplanted AsPC-1 cells (tumor volume and tumor weight),[3]; athymic mice (FIG. 6),markedly inhibited the growth
same,inhibition of tube formation relative to the vehicle-treated controls,"[4]; 100, 10 and 1 μM (≧30%)",significant inhibition
same,"%, Inhibition of the total tube length (Mean ± SEM, n = 2)",[4]; 0.01 μM,1 ± 1%
same,"%, Inhibition of the total tube length (Mean ± SEM, n = 2)",[4]; 0.1 μM,3 ± 4%
same,"%, Inhibition of the total tube length (Mean ± SEM, n = 2)",[4]; 1 μM,"88 ± 6^a,b %"
same,"%, Inhibition of the total tube length (Mean ± SEM, n = 2)",[4]; 10 μM,100 ± 0^a %
same,"%, Inhibition of the total tube length (Mean ± SEM, n = 2)",[4]; 100 μM,100 ± 0^a %
same,MIC (Minimum Inhibitory Concentration),"[4]; tube formation, significant inhibition ≧30%",1 µM
same,expression of Mcl-1,Mcl-1,decreased expression
same,cell number compared to control,AsPC-1 cells [5]; 48 and 72 hours,marked and progressive decrease in cell number
same,cell number compared to control,AsPC-1 cells [5]; first 24 hours,no obviously effect
